Columns and labels:
h5-HT1A (CHO p-5 cells) = molecular target: T1, h5-HT1A (CHO p-5 cells) (Homo sapiens, UniProt P08908); assay: [3H]Thymidine Uptake Assay for Serotonin 1A Intrinsic Activity; assay type: cell-based; conditions: relative to 1 μM (+)-8-OH-DPAT classified as 100% response; HCl salt tested
T1 construct: expressed in transfected cells
T1 sequence (P08908 1-422): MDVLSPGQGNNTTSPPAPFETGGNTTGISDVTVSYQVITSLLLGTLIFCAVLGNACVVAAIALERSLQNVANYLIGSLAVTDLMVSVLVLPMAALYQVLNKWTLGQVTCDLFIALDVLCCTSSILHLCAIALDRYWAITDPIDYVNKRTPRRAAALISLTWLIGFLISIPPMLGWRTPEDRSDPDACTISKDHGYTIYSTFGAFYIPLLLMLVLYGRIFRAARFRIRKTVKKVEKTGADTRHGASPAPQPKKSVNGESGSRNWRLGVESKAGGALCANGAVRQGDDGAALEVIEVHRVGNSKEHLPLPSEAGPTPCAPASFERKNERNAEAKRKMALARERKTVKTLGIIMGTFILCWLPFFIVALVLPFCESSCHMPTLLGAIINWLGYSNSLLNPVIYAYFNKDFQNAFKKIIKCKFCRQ
Method: 4) [^3H]Thymidine Uptake Assay for Serotonin 1A Intrinsic Activity
CHO p-5 cells transfected with h5-HT1A cDNA were seeded into 96-well plates at a density of approximately […] cells/well. These were grown for 3 days at 37° C. in an incubator with alpha minimum essential medium (αMEM) and 10% fetal calf serum containing penicillin (100 U/mL) and streptomycin (100 μg/mL). The wells were then rinsed by washing twice with 200 μL of serum-free media, and 90 μL serum-free media was added to each well. The plates were incubated for two to three hours, then 10 μL of serum-containing media (positive control), vehicle (10 μL DMSO), negative control (10 μL of an antagonist in DMSO) or different concentrations of the test compound and standards (10 μL DMSO solution) in serum-free media were added to appropriate wells. The plates were incubated for 18 hrs. Then [^3H]thymidine was added (0.5 μCi/well in 10 μL of serum-free media) after which the plates were returned to the incubator. Four hours later, trypsin (0.25%) was added (100 μL/well), and plates were returned again to the incubator. The assay was terminated 1 hr later by rapid filtration through Whatman GF/C glass fiber filters. […] Radioactivity remaining on the filters was estimated with a Wallac 1205 Betaplate liquid scintillation counter (50% efficiency). […]

[1] = molecular target: T2, Serotonin 1A (5-HT1A) Receptor (Homo sapiens, UniProt P08908); assay: Serotonin 1A (5-HT1A) Receptor Binding Assay ([3H]8-OH-DPAT, transfected HeLa membranes); conditions: [3H]8-OH-DPAT 2.0 nM, transfected HeLa cell membranes; HCl salt tested
T2 construct: expressed in transfected cells; host or cells: HeLa cells
T2 sequence (P08908 1-422): T1 sequence (P08908 1-422)
Method: 2) Serotonin 1A (5-HT1A) Receptor Binding Assay
The assay was conducted in membranes prepared from HeLa cells transfected with the cDNA for […] receptors using [^3H] 8-hydroxy-2-(di-n-propylamino)-tetraline ([^3H] 8-OH-DPAT, final concentration 2.0 nM) as reference […] receptor agonist. Assay buffer consisted of 50 mM Tris-HCl with 10 mM MgSO4, 0.5 mM EDTA and 0.1% ascorbic acid, at pH 7.4 (250 μL total volume). Triplicate samples containing (in order of addition) the test compound, 100× in 100% DMSO, [^3H] 8-OH-DPAT and cell homogenate was incubated for 2 hr at room temperature. Experiments were terminated by rapid filtration through Whatman GF/B glass fiber filters soaked in assay buffer with 0.3% PEI by washing three timnes with 1 mL of wash buffer (50 mM Tris-HCl, pH 7.4) using a Brandel MLR-96T cell harvester. Specific binding (85%) was determined in the presence of 10 μM 8-OH-DPAT.

[2] = molecular target: T3, Dopamine D2 Receptor (hD2L) (Homo sapiens, UniProt P14416); assay: Dopamine D2 Receptor Binding Assay ([3H]spiperone, CHO-hD2L membranes); conditions: [3H]spiperone 0.4 nM, HCl salt tested
T3 construct: expressed in transfected cells; host or cells: CHO cells (CHO-hD2L)
Method: 1) Dopamine D2 Receptor Binding Assay
[^3H]Spiperone binding to a membrane preparation from CHO-hD2L cells was carried out in 250 μL of 50 mM Tris-HCl buffer containing 100 mM NaCl, 1 mM MgCl2 and 1% DMSO at pH 7.4. Duplicate samples containing (in order of addition) the test compound, 0.4 nM [^3H]spiperone and approximately 12 μg protein were incubated for 120 min at room temperature. Bound radioligand was separated by rapid filtration under reduced pressure through Whatman GF/B glass fiber filters previously treated with 0.3% polyethyleneimine (PEI). Radioactivity retained on the filter was determined by liquid scintillation spectrophotometry. Specific binding determined in the presence of 1 mM haloperidol was 95%.

[3] = molecular target: T4, D2 receptor (CHO pro-5 cells) (Homo sapiens, UniProt P14416); assay: [3H]Thymidine Uptake Assay for Dopamine D2 Intrinsic Activity; assay type: cell-based; conditions: relative to 1 μM Quinpirole classified as 100% intrinsic activity; HCl salt tested
T4 construct: expressed in transfected cells; host or cells: CHO pro-5 cells
Method: 3) [^3H]Thymidine Uptake Assay for Dopamine D2 Intrinsic Activity
The assay was conducted using CHO pro-5 cells containing the D2 receptor and conventional 96-well sterile plates. Serum was removed from the cells by washing the cells twice with 200 μL of serum-free media. 90 μL serum-free media was added to each well. The plates ware incubated for two to three hours. 10 μL of serum-containing media, as a positive control, vehicle (serum-free media), antagonist control (haloperidol), or the test compound, and standards (10 μL of a 10 μM solution for a final concentration of 1 μM) in serum-free media were added to wells. The plates were returned to the incubator. Eighteen hours later [^3H]thymidine was added (0.5 μCi/well in 10 μL of serum-free media) and the plates were returned to the incubator. Four hours later trypsin (0.25%) was added (100 μL/well). The plates were returned to the incubator, once again. One hour later the assay was terminated by rapid filtration through Whatman GF/C glass fiber filters. Filters were washed four times with […] of 50 mM Tris-HCl pH 7.0 buffer, for example, using a Brandel MLR-96T cell harvester. Radioactivity remaining on the filters was estimated with a Wallac 1205 Betaplate liquid scintillation counter (50% efficiency). Intrinsic activity is defined as total uptake (1 μM Quinpirole) minus serum-free media (no uptake). […]

T3 sequence (P14416 whole entry): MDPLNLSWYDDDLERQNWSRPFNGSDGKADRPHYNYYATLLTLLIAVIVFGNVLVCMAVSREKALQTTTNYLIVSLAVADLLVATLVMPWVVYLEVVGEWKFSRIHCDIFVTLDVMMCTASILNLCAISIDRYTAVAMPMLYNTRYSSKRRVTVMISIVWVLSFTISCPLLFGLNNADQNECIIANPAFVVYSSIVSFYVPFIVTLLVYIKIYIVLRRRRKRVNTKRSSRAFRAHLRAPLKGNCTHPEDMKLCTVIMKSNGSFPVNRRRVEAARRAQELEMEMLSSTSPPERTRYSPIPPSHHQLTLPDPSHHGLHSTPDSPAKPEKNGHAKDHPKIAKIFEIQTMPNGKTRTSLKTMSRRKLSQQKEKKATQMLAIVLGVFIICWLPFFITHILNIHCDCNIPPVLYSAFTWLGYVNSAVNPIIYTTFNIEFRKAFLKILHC
T4 sequence (P14416 whole entry): as above

O=c1ccc2ccc(OCCCCN3CCN(c4cccc(Cl)c4C(F)(F)F)CC3)nc2[nH]1 [compound of formula (I), 7-(4-{4-[3-chloro-2-(trifluoromethyl)phenyl]piperazine-1-yl}butoxy)-[1,8]-naphthyridin-2(1H)-one]
Emax (h5-HT1A (CHO p-5 cells)): 90% | Ki [1]: 4 nM | Ki [2]: 3.9 nM | Emax [3]: 55%
